Measured values from paper PMC6225123, “Optimization of Aminoimidazole Derivatives as Src Family Kinase Inhibitors” (Molecules : A Journal of Synthetic Chemistry and Natural …, 2018).
Read-outs that look alike come from different tables or passages of the source.

How the values were obtained:
[1] = molecular target: active human recombinant Src (Homo sapiens, UniProt P12931); test: Z'-LYTE kinase assay (FRET), primary screen; format: biochemical; conditions: isolated enzyme, mean ± SD of two independent experiments
Method: (§2) Enzymatic assays to determine the kinase inhibitory activity of NCEs were performed using an automatic liquid-handling device (Microlab STAR Hamilton) and Z’-LYTE Kinase Assay Platform, a fluorescence resonance energy transfer (FRET)-based assay platform compatible with high-throughput screening (HTS) applications. […] The assay procedure was carried out according to the supplier’s indications. […] Final results have been expressed as percent inhibition, and IC50 values were calculated by non-linear curve fitting using GraphPad Prism software (version 6 for Windows). The inter-experimental variability of IC50 values resulted within accepted limits of ±0.5 log units.

[2] = molecular target: T1, Fyn (Homo sapiens, UniProt P06241); test: Z'-LYTE kinase assay (FRET), SFK profiling; format: biochemical; conditions: isolated enzyme, mean ± SD of two independent experiments
T1 construct: (Fyn, LynA, and Yes1, all human recombinant full-length proteins)
Method: as §2

[3] = test system: U87 glioblastoma multiforme cells; test: Antiproliferative assay, viable cell count after 72 h; format: cell-based; conditions: Homo sapiens; U87, 72 h incubation
Method: A possible explanation could be the multidrug resistance mechanisms that GBM cells usually carry: an example is the overexpression of membrane channels (ABCB1) that are able to pump different kind of drugs out of the cells. In Supplementary Materials, Figure S1, the activity of other NCEs on U87 GBM cell line are reported.
In vitro experiments were carried out using human neuroblastoma cell line SH-SY5Y, human glioblastoma cell line U-87, and human erythroleukemia cell line K-562. Cell lines were obtained from American Tissue Culture Collection (ATCC, SH-SY5Y CRL-2266; U-87 HTB-14; K-562 CCL-243). K-562 cells were cultured in RPMI medium with 10% FCS. SH-SY5Y and U-87 cells were cultured in DMEM medium with 10% FCS. In order to determine antiproliferative effect of NCE compounds cells were seeded at density of 5 × 10^4 cells/mL (K-562) or 10 × 10^4 cells/cm^2 (SH-SY5Y, U-87) and treated with increasing concentrations of NCE compounds. Control cells were treated with the vehicle of the experimental point containing the highest percentage of DMSO. Cell cultures were maintained at 37 °C in 5% v/v CO2 for 72 h. Cell number and vitality were evaluated on cell suspension using the automatic cell counter NucleoCounter® (Chemometec, Denmark). […] Each experiment was performed at least three times and results were expressed as mean and standard deviation.

[4] = molecular target: T2, LynA (Homo sapiens, UniProt P07948); test: Z'-LYTE kinase assay (FRET), SFK profiling; format: biochemical; conditions: isolated enzyme, mean ± SD of two independent experiments; read-out: Lyn IC50
T2 construct: (Fyn, LynA, and Yes1, all human recombinant full-length proteins)
Method: as §2

[5] = test system: SH-SY5Y neuroblastoma cell line; test: Antiproliferative assay, viable cell count after 72 h; format: cell-based, human; conditions: for increased activity compared to the hit compound 2 on SH-SY5Y cells: 72 h, ratio of IC50 values; for IC50: Homo sapiens, 72 h incubation, read-out: IC50 antiproliferative activity on SH-SY5Y cells
Method: (§1) Starting from these promising results in enzymatic assays, we decided to test NCEs 4 on K562 CML and SH-SY5Y NB cell lines, to evaluate if they are endowed with an increased antiproliferative activity compared with the hit compound 2. A hyperactivation of SFKs has been detected in both K562 and SH-SY5Y cell lines. Cells were treated with increasing concentrations of compounds and cell proliferation was measured by counting viable cells after 72 h of incubation. […] The activity of these compounds could be due not only to Src inhibition, but also to their effect on Fyn and Lyn, both involved in NB development.
In vitro experiments were carried out using human neuroblastoma cell line SH-SY5Y, human glioblastoma cell line U-87, and human erythroleukemia cell line K-562. Cell lines were obtained from American Tissue Culture Collection (ATCC, SH-SY5Y CRL-2266; U-87 HTB-14; K-562 CCL-243). K-562 cells were cultured in RPMI medium with 10% FCS. SH-SY5Y and U-87 cells were cultured in DMEM medium with 10% FCS. In order to determine antiproliferative effect of NCE compounds cells were seeded at density of 5 × 10^4 cells/mL (K-562) or 10 × 10^4 cells/cm^2 (SH-SY5Y, U-87) and treated with increasing concentrations of NCE compounds. Control cells were treated with the vehicle of the experimental point containing the highest percentage of DMSO. Cell cultures were maintained at 37 °C in 5% v/v CO2 for 72 h. Cell number and vitality were evaluated on cell suspension using the automatic cell counter NucleoCounter® (Chemometec, Denmark). Results from the NucleoCounter represented either total or non-viable cell concentration, depending on the sample preparation indicated by the manufacturer. Each experiment was performed at least three times and results were expressed as mean and standard deviation.

[6] = test system: K562 CML cell line; test: Antiproliferative assay, viable cell count after 72 h; format: cell-based; conditions: Homo sapiens; K562, 72 h incubation; read-out: IC50 antiproliferative activity on K562 cells
Method: as §1
In vitro experiments were carried out using human neuroblastoma cell line SH-SY5Y, human glioblastoma cell line U-87, and human erythroleukemia cell line K-562. Cell lines were obtained from American Tissue Culture Collection (ATCC, SH-SY5Y CRL-2266; U-87 HTB-14; K-562 CCL-243). K-562 cells were cultured in RPMI medium with 10% FCS. SH-SY5Y and U-87 cells were cultured in DMEM medium with 10% FCS. […] Cell number and vitality were evaluated on cell suspension using the automatic cell counter NucleoCounter® (Chemometec, Denmark). […] Each experiment was performed at least three times and results were expressed as mean and standard deviation.

[7] = molecular target: T3, Yes1 (Homo sapiens, UniProt P07947); test: Z'-LYTE kinase assay (FRET), SFK profiling; format: biochemical; conditions: isolated enzyme, mean ± SD of two independent experiments; read-out: Yes IC50
T3 construct: (Fyn, LynA, and Yes1, all human recombinant full-length proteins)
Method: as §2

[8] = test system: Jak2; parameters: method as in PMID 24359159; conditions: cited from earlier work
[9] = test system: SH-SY5Y neuroblastoma cell line; parameters: method as in PMID 26514807; conditions: previous work; cited from earlier work
[10] = test system: K562 CML cell line; parameters: method as in PMID 26514807; conditions: previous work; cited from earlier work

T1 sequence (P06241 whole entry): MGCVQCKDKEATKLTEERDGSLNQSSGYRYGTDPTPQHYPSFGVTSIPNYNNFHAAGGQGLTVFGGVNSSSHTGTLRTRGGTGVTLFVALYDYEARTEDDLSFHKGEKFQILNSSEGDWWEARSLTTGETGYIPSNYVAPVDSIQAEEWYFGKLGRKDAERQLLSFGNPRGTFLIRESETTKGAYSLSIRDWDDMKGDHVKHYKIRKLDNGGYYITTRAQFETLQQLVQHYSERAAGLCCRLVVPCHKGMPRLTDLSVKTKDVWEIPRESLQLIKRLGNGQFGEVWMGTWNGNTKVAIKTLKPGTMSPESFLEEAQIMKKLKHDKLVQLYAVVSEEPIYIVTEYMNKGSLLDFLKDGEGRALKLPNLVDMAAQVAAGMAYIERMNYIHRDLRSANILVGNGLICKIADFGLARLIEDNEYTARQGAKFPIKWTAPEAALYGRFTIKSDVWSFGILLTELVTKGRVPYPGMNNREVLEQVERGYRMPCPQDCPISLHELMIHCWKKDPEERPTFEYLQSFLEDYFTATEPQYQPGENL
T3 sequence (P07947 whole entry): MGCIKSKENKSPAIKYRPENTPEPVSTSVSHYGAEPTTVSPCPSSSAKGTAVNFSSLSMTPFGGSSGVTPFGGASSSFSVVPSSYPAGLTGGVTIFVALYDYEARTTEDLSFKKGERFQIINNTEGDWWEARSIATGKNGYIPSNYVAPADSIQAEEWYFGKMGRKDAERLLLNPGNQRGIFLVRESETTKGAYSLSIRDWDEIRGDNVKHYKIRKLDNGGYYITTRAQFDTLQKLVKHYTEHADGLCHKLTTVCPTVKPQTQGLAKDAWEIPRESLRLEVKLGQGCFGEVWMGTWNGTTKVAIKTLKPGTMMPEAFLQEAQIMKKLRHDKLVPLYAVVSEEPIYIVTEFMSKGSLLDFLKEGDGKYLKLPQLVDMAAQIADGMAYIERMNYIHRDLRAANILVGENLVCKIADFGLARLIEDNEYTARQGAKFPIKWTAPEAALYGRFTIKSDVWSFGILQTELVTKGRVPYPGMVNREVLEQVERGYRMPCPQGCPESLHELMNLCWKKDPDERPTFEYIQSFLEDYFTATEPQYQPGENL
Sequence of active human recombinant Src (P12931 whole entry): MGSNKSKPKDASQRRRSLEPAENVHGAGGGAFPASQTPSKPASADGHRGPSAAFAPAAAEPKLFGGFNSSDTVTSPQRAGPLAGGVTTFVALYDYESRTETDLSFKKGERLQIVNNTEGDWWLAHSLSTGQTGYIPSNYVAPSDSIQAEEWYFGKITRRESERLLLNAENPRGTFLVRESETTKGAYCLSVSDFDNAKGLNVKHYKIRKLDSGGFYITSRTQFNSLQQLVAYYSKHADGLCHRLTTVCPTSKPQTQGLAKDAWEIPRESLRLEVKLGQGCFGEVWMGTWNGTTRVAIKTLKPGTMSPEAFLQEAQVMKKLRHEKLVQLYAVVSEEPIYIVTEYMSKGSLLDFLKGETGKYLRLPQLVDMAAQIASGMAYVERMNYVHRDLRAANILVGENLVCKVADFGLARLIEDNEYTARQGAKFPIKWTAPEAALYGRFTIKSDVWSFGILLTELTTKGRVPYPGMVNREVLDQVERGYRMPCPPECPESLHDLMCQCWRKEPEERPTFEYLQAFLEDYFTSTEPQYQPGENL
T2 sequence (P07948 whole entry): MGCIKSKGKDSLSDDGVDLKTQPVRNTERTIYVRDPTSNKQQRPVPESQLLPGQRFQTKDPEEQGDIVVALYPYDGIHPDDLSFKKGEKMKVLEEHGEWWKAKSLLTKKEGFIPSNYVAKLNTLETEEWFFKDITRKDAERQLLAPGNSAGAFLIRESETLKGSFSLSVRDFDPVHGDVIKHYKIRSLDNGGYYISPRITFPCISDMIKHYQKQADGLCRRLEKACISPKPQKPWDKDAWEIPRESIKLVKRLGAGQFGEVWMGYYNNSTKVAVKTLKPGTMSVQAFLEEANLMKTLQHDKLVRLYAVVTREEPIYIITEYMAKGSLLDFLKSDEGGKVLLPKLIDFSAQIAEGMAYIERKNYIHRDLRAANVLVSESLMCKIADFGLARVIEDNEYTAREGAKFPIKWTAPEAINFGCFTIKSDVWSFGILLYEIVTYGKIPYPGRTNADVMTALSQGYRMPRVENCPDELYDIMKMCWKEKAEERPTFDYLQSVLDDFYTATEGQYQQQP

Row | Structure (SMILES) | IC50 [1] | IC50 [2] | IC50 [3] | IC50 [4] | IC50 [5] | melting point | IC50 [6] | IC50 [7] | increased activity compared to the hit compound 2 on SH-SY5Y cells [5] | IC50 [8] | IC50 [9] | IC50 [10]
1 | COC(=O)CN1CCN(c2cc(Nc3cn(CCc4cccc(O)c4)cn3)nc(C)n2)CC1 [4k, Methyl{4-[6-({1-[2-(3-hydroxyphenyl)ethyl]-1H-imidazol-4-yl}amino)-2-methylpyrimidin-4-yl]piperazin-1-yl}acetate] | 40 ± 2 nM | 9 ± 1 nM | 12.6 µM | 18 ± 1 nM | 8.6 µM | 127 to 130 °C | 11.7 µM | 3 ± 1 nM | more than 2 fold | – | – | –
2 | Cc1cc(Nc2nc(N[C@@H](C)c3ncc(F)cn3)ncc2Cl)n[nH]1 [AZD1480] | – | – | – | – | – | – | – | – | – | 58 nM | – | –
3 | COc1ccccc1CCn1cnc(Nc2cc(N3CCN(CC(N)=O)CC3)nc(C)n2)c1 [4d, 2-{4-[6-({1-[2-(2-Methoxyphenyl)ethyl]-1H-imidazol-4-yl}amino)-2-methylpyrimidin-4-yl]piperazin-1-yl}acetamide] | 1530 ± 44 nM | 1390 ± 93 nM | – | 1200 ± 189 nM | – | – | – | – | – | – | – | –
4 | Cc1nc(Nc2cn(CCc3ccccc3)cn2)cc(N2CCN(CCO)CC2)n1 [compound 2] | – | – | – | – | – | – | – | – | – | – | 25 µM | > 25 µM
5 | COc1cccc(CCn2cnc(Nc3cc(N4CCN(CCO)CC4)nc(C)n3)c2)c1 [4a, 2-{4-[6-({1-[2-(3-Methoxyphenyl)ethyl]-1H-imidazol-4-yl}amino)-2-methylpyrimidin-4-yl]piperazin-1-yl}ethanol] | 260 ± 23 nM | 146 ± 30 nM | – | 451 ± 13 nM | – | – | – | 560 ± 40 nM | – | – | – | –
6 | Cc1nc(Nc2cn(CCc3cccc(O)c3)cn2)cc(N2CCNCC2)n1 [4i, 3-(2-{4-[(2-Methyl-6-piperazin-1-ylpyrimidin-4-yl)amino]-1H-imidazol-1-yl}ethyl)phenol] | 83 ± 18 nM | 10 ± 0.4 nM | – | 27 ± 1 nM | – | 193 to 196 °C | – | 3 ± 0.8 nM | – | – | – | –
7 | Cc1nc(Nc2cn(CCc3ccccc3O)cn2)cc(N2CCN(CC(N)=O)CC2)n1 [4g, 2-{4-[6-({1-[2-(2-Hydroxyphenyl)ethyl]-1H-imidazol-4-yl}amino)-2-methylpyrimidin-4-yl]piperazin-1-yl}acetamide] | 40 ± 5 nM | 40 ± 5 nM | – | 19 ± 2 nM | – | 160 to 163 °C | – | 15 ± 4 nM | – | – | – | –
8 | Cc1nc(Nc2cn(CCc3cccc(O)c3)cn2)cc(N2CCN(C(=O)OC(C)(C)C)CC2)n1 [4l, tert-Butyl4-[6-({1-[2-(3-hydroxyphenyl)ethyl]-1H-imidazol-4-yl}amino)-2-methylpyrimidin-4-yl]piperazine-1-carboxylate] | 50 ± 3 nM | 14 ± 1.5 nM | 13.3 µM | 26 ± 3 nM | 7.8 µM | 127 to 130 °C | 18.9 µM | 7 ± 0.35 nM | more than 2 fold | – | – | –

More lines, in order of falling IC50 [1], values ahead:

Row | IC50 [1] | IC50 [2] | IC50 [3] | IC50 [4] | IC50 [5] | melting point | IC50 [6] | IC50 [7] | Structure (SMILES) | increased activity compared to the hit compound 2 on SH-SY5Y cells [5] | IC50 [8] | IC50 [9] | IC50 [10]
9 | 1480 ± 185 nM | 1450 ± 768 nM | – | 1810 ± 307 nM | – | 198 to 200 °C | – | 1840 ± 812 nM | COc1cccc(CCn2cnc(Nc3cc(N4CCN(CC(N)=O)CC4)nc(C)n3)c2)c1 [4b, 2-{4-[6-({1-[2-(3-Methoxyphenyl)ethyl]-1H-imidazol-4-yl}amino)-2-methylpyrimidin-4-yl]piperazin-1-yl}acetamide] | – | – | – | –
10 | 225 ± 8 nM | 439 ± 45 nM | – | 145 ± 31 nM | – | – | – | 55 ± 9 nM | COc1ccccc1CCn1cnc(Nc2cc(N3CCN(CCO)CC3)nc(C)n2)c1 [4c, 2-{4-[6-({1-[2-(2-Methoxyphenyl)ethyl]-1H-imidazol-4-yl}amino)-2-methylpyrimidin-4-yl]piperazin-1-yl}ethanol] | – | – | – | –
11 | 93 ± 19 nM | 10 ± 0.4 nM | – | 20 ± 0.8 nM | – | 150 to 155 °C | – | 3 ± 1 nM | Cc1nc(Nc2cn(CCc3cccc(O)c3)cn2)cc(N2CCN(CCO)CC2)n1 [4h, 3-{2-[4-({6-[4-(2-Hydroxyethyl)piperazin-1-yl]-2-methylpyrimidin-4-yl}amino)-1H-imidazol-1-yl]ethyl}phenol] | – | – | – | –
12 | 59 ± 5 nM | 73 ± 5 nM | – | 17 ± 0.54 nM | – | – | – | 11 ± 0.6 nM | Cc1nc(Nc2cn(CCc3ccccc3O)cn2)cc(N2CCN(CCO)CC2)n1 [4e, 2-{2-[4-({6-[4-(2-Hydroxyethyl)piperazin-1-yl]-2-methylpyrimidin-4-yl}amino)-1H-imidazol-1-yl]ethyl}phenol] | – | – | – | –
13 | 56 ± 5 nM | 50 ± 4 nM | – | 51 ± 3 nM | – | 193 to 196 °C | – | 3 ± 1 nM | Cc1nc(Nc2cn(CCc3ccccc3O)cn2)cc(N2CCNCC2)n1 [4f, 2-(2-{4-[(2-Methyl-6-piperazin-1-ylpyrimidin-4-yl)amino]-1H-imidazol-1-yl}ethyl)phenol] | – | – | – | –
14 | 40 ± 3 nM | 12 ± 2 nM | – | 10 ± 1.2 nM | – | – | – | 3 ± 0.7 nM | Cc1nc(Nc2cn(CCc3cccc(O)c3)cn2)cc(N2CCN(CC(N)=O)CC2)n1 [4j, 2-{4-[6-({1-[2-(3-Hydroxyphenyl)ethyl]-1H-imidazol-4-yl}amino)-2-methylpyrimidin-4-yl]piperazin-1-yl}acetamide] | – | – | – | –
